For two molecules, Ka results are on record in publication PMC8347432 (2021).

The subject of test [1] is octamer duplex d(GCGATCGC)2 (3) (DNA, duplex) GCGATCGC
Briefly: 1H NMR titration (chemical shift). The note with it: 25 mM NaCl, 25 mM K3PO4, D2O buffer, pH 6.0, 10 °C, 0.29 mM compound.

Test [2] shares this test system. The test can be described thus: DOSY NMR (PGSE diffusion coefficients). The note with it: 25 mM NaCl, 25 mM K3PO4, D2O buffer, pH 6.4, 10 °C, 0.29 mM compound.

With `CCc1c2c(nc3ccc(O)c(CN4CCC4)c13)-c1cc3c(c(=O)n1[C@@H]2CO)COC(=O)[C@]3(O)CC`, the Ka in test [1] worked out at 3.76 ± 1.19 mM⁻¹; in test [2] (0.87 mM octamer), 2.0 ± 0.3 mM⁻¹.

In the case of `CCc1c2c(nc3ccc(O)c(CN4CCC4)c13)-c1cc3c(c(=O)n1[C@H]2CO)COC(=O)[C@]3(O)CC`, the Ka in test [1] (5.89 ± 1.07 omitting H12 and H14) came out at 5.00 ± 2.02 mM⁻¹; in test [2] (0.92 mM octamer), 5.9 ± 0.3 mM⁻¹.
